Measured values: patent US9708314B2, “Heterocyclic amide compound” (NISSAN CHEMICAL INDUSTRIES, LTD., priority 2013, dated 2017)

How the values were obtained:
Assay type in all cases: in vivo
[1] = tested on: Zea mays; test: Test Example 4: effect on crop by application to foliage (diluvial soil, plastic box); settings: for c (Zea mays) effect on crop grade: Application herbicide amount 320 g/ha, foliage application
Method in brief: (§1)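 Seeds sown in sterilized diluvial soil, covered ~1.5 cm, grown 14 days in greenhouse at 25° C. to 30° C. Emulsion formulation diluted in water to set rate (g/ha) and sprayed onto stems and leaves. Effect scored visually 3 weeks later on 0–5 scale (5 = ≥90% herbicidal ratio, 0 = ≤5%).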

[2] = tested on: Beta vulgaris ssp. vulgaris; test: as above; settings: for f (Beta vulgaris ssp. vulgaris) effect on crop grade: Application herbicide amount 320 g/ha, foliage application
Method in brief: as §1

[3] = tested on: directly sowed Oryza sativa; test: as above; settings: for b (directly sowed Oryza sativa) effect on crop grade: Application herbicide amount 320 g/ha, foliage application
Method in brief: as §1

[4] = tested on: Glycine max; test: as above; settings: for d (Glycine max) effect on crop grade: Application herbicide amount 320 g/ha, foliage application
Method in brief: as §1

[5] = tested on: Triticum aestivum; test: as above; settings: for e (Triticum aestivum) effect on crop grade: Application herbicide amount 320 g/ha, foliage application
Method in brief: as §1

[6] = tested on: Brassica campestris L.; test: as above; settings: for g (Brassica campestris L.) effect on crop grade: Application herbicide amount 320 g/ha, foliage application
Method in brief: as §1

[7] = tested on: Cyperus difformis; test: Test Example 3: herbicidal effect by application to foliage (Wagner pot, water depth 0.1-0.5 cm); settings: Nineteenth Table; application to foliage; application herbicide amount 320 g/ha
Method in brief: (§2)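 Greenhouse pot test, 25–30 °C, alluvial soil. Sown seedlings grown 14 days then sprayed on leaves and stems with emulsion diluted to target g/ha. Rating at 3 weeks, 0–5 scale (0 ≤5%, 5 ≥90%).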

[8] = tested on: Echinochloa crus-galli var. crus-galli; test: as above; settings: Nineteenth Table; application to foliage; application herbicide amount 320 g/ha
Method in brief: as §2

[9] = tested on: Leptochloa chinensis; test: as above; settings: Nineteenth Table; application to foliage; application herbicide amount 320 g/ha
Method in brief: as §2

[10] = tested on: Abutilon theophrasti; test: Test Example 4: herbicidal effect by application to foliage (diluvial soil, plastic box); settings: for M (Abutilon theophrasti) herbicidal effect grade: Application herbicide amount 320 g/ha, foliage application
Method in brief: as §1

[11] = tested on: Lolium multiflorum Lam.; test: as above; settings: for K (Lolium multiflorum Lam.) herbicidal effect grade: Application herbicide amount 320 g/ha, foliage application
Method in brief: as §1

[12] = tested on: Stellaria media; test: as above; settings: for P (Stellaria media) herbicidal effect grade: Application herbicide amount 320 g/ha, foliage application
Method in brief: as §1

[13] = tested on: Chenopodium album; test: as above; settings: for O (Chenopodium album) herbicidal effect grade: Application herbicide amount 320 g/ha, foliage application
Method in brief: as §1

[14] = tested on: Echinochloa crus-galli var. crus-galli; test: as above; settings: for H (Echinochloa crus-galli var. crus-galli) herbicidal effect grade: Application herbicide amount 320 g/ha, foliage application
Method in brief: as §1

[15] = tested on: Apera spica-venti.; test: as above; settings: for L (Apera spica-venti.) herbicidal effect grade: Application herbicide amount 320 g/ha, foliage application
Method in brief: as §1

[16] = tested on: Amaranthus retroflexus; test: as above; settings: for N (Amaranthus retroflexus) herbicidal effect grade: Application herbicide amount 320 g/ha, foliage application
Method in brief: as §1

[17] = tested on: Digitaria ciliaris; test: as above; settings: for F (Digitaria ciliaris) herbicidal effect grade: Application herbicide amount 320 g/ha, foliage application
Method in brief: as §1

[18] = tested on: Galium spurium; test: as above; settings: for Q (Galium spurium) herbicidal effect grade: Application herbicide amount 320 g/ha, foliage application
Method in brief: as §1

[19] = tested on: Setaria viridis; test: as above; settings: for G (Setaria viridis) herbicidal effect grade: Application herbicide amount 320 g/ha, foliage application
Method in brief: as §1

[20] = tested on: Veronica persica; test: as above; settings: for R (Veronica persica) herbicidal effect grade: Application herbicide amount 320 g/ha, foliage application
Method in brief: as §1

[21] = tested on: Avena fatua; test: as above; settings: for I (Avena fatua) herbicidal effect grade: Application herbicide amount 320 g/ha, foliage application
Method in brief: as §1

[22] = tested on: Alopecurus myosuroides; test: as above; settings: for J (Alopecurus myosuroides) herbicidal effect grade: Application herbicide amount 320 g/ha, foliage application
Method in brief: as §1

[23] = tested on: directly sowed Oryza sativa; test: Test Example 3: effect on crop by application to foliage (Wagner pot, water depth 0.1-0.5 cm); settings: Nineteenth Table; application to foliage; application herbicide amount 320 g/ha
Method in brief: as §2

[24] = application to foliage, application herbicide amount 320 g/ha

## Cc1nnc(NC(=O)c2ccc(C(F)(F)F)n3c(N4CCS(=O)(=O)CC4)nnc23)o1 [1-120]
[1]
  c (Zea mays) effect on crop grade: 0 (Herbicidal ratio of 5% or less (almost no effect))
[2]
  f (Beta vulgaris ssp. vulgaris) effect on crop grade: 5 (Herbicidal ratio of 90% or more (almost completely withered))
[3]
  b (directly sowed Oryza sativa) effect on crop grade: 2 (Herbicidal ratio of 20% or more and less than 40%)
[4]
  d (Glycine max) effect on crop grade: 4 (Herbicidal ratio of 70% or more and less than 90%)
[5]
  e (Triticum aestivum) effect on crop grade: 3 (Herbicidal ratio of 40% or more and less than 70%)
[6]
  g (Brassica campestris L.) effect on crop grade: 5 (Herbicidal ratio of 90% or more (almost completely withered))
[7]
  E (herbicidal effect grade): 5 (Herbicidal ratio of 90% or more (almost completely withered))
[8]
  H (herbicidal effect grade): 5 (Herbicidal ratio of 90% or more (almost completely withered))
[9]
  D (herbicidal effect grade): 5 (Herbicidal ratio of 90% or more (almost completely withered))
[10]
  M (Abutilon theophrasti) herbicidal effect grade: 4 (Herbicidal ratio of 70% or more and less than 90%)
[11]
  K (Lolium multiflorum Lam.) herbicidal effect grade: 3 (Herbicidal ratio of 40% or more and less than 70%)
[12]
  P (Stellaria media) herbicidal effect grade: 5 (Herbicidal ratio of 90% or more (almost completely withered))
[13]
  O (Chenopodium album) herbicidal effect grade: 5 (Herbicidal ratio of 90% or more (almost completely withered))
[14]
  H (Echinochloa crus-galli var. crus-galli) herbicidal effect grade: 5 (Herbicidal ratio of 90% or more (almost completely withered))
[15]
  L (Apera spica-venti.) herbicidal effect grade: 5 (Herbicidal ratio of 90% or more (almost completely withered))
[16]
  N (Amaranthus retroflexus) herbicidal effect grade: 5 (Herbicidal ratio of 90% or more (almost completely withered))
[17]
  F (Digitaria ciliaris) herbicidal effect grade: 5 (Herbicidal ratio of 90% or more (almost completely withered))
[18]
  Q (Galium spurium) herbicidal effect grade: 5 (Herbicidal ratio of 90% or more (almost completely withered))
[19]
  G (Setaria viridis) herbicidal effect grade: 5 (Herbicidal ratio of 90% or more (almost completely withered))
[20]
  R (Veronica persica) herbicidal effect grade: 5 (Herbicidal ratio of 90% or more (almost completely withered))
[21]
  I (Avena fatua) herbicidal effect grade: 3 (Herbicidal ratio of 40% or more and less than 70%)
[22]
  J (Alopecurus myosuroides) herbicidal effect grade: 3 (Herbicidal ratio of 40% or more and less than 70%)
[23]
  b (effect on crop grade): 3 (Herbicidal ratio of 40% or more and less than 70%)

## COCCN(C)c1nnc2c(C(=O)Nc3nnco3)ccc(C(F)(F)F)n12 [1-121]
[1]
  c (Zea mays) effect on crop grade: 2 (Herbicidal ratio of 20% or more and less than 40%)
[2]
  f (Beta vulgaris ssp. vulgaris) effect on crop grade: 5 (Herbicidal ratio of 90% or more (almost completely withered))
[3]
  b (directly sowed Oryza sativa) effect on crop grade: 2 (Herbicidal ratio of 20% or more and less than 40%)
[4]
  d (Glycine max) effect on crop grade: 4 (Herbicidal ratio of 70% or more and less than 90%)
[5]
  e (Triticum aestivum) effect on crop grade: 3 (Herbicidal ratio of 40% or more and less than 70%)
[6]
  g (Brassica campestris L.) effect on crop grade: 5 (Herbicidal ratio of 90% or more (almost completely withered))
[7]
  E (herbicidal effect grade): 5 (Herbicidal ratio of 90% or more (almost completely withered))
[8]
  H (herbicidal effect grade): 5 (Herbicidal ratio of 90% or more (almost completely withered))
[9]
  D (herbicidal effect grade): 5 (Herbicidal ratio of 90% or more (almost completely withered))
[10]
  M (Abutilon theophrasti) herbicidal effect grade: 4 (Herbicidal ratio of 70% or more and less than 90%)
[11]
  K (Lolium multiflorum Lam.) herbicidal effect grade: 3 (Herbicidal ratio of 40% or more and less than 70%)
[12]
  P (Stellaria media) herbicidal effect grade: 5 (Herbicidal ratio of 90% or more (almost completely withered))
[13]
  O (Chenopodium album) herbicidal effect grade: 5 (Herbicidal ratio of 90% or more (almost completely withered))
[14]
  H (Echinochloa crus-galli var. crus-galli) herbicidal effect grade: 5 (Herbicidal ratio of 90% or more (almost completely withered))
[15]
  L (Apera spica-venti.) herbicidal effect grade: 3 (Herbicidal ratio of 40% or more and less than 70%)
[16]
  N (Amaranthus retroflexus) herbicidal effect grade: 5 (Herbicidal ratio of 90% or more (almost completely withered))
[17]
  F (Digitaria ciliaris) herbicidal effect grade: 5 (Herbicidal ratio of 90% or more (almost completely withered))
[18]
  Q (Galium spurium) herbicidal effect grade: 3 (Herbicidal ratio of 40% or more and less than 70%)
[19]
  G (Setaria viridis) herbicidal effect grade: 4 (Herbicidal ratio of 70% or more and less than 90%)
[20]
  R (Veronica persica) herbicidal effect grade: 5 (Herbicidal ratio of 90% or more (almost completely withered))
[21]
  I (Avena fatua) herbicidal effect grade: 3 (Herbicidal ratio of 40% or more and less than 70%)
[22]
  J (Alopecurus myosuroides) herbicidal effect grade: 3 (Herbicidal ratio of 40% or more and less than 70%)
[23]
  b (effect on crop grade): 3 (Herbicidal ratio of 40% or more and less than 70%)

## Cn1nnnc1NC(=O)c1ccc(C(F)(F)F)n2c(C3CC3)nnc12 [2-005]
[1]; [24]
  c: effect on crop, Zea mays: 1 (Herbicidal ratio of 5% or more and less than 20%)
[2]; [24]
  f: effect on crop, Beta vulgaris ssp. vulgaris: 5 (Herbicidal ratio of 90% or more (almost completely withered))
[3]; [24]
  b: effect on crop, directly sowed Oryza sativa: 0 (Herbicidal ratio of 5% or less (almost no effect))
[4]; [24]
  d: effect on crop, Glycine max: 3 (Herbicidal ratio of 40% or more and less than 70%)
[5]; [24]
  e: effect on crop, Triticum aestivum: 3 (Herbicidal ratio of 40% or more and less than 70%)
[6]; [24]
  g: effect on crop, Brassica campestris L.: 4 (Herbicidal ratio of 70% or more and less than 90%)
[7]
  E (herbicidal effect grade): 4 (Herbicidal ratio of 70% or more and less than 90%)
[8]
  H (herbicidal effect grade): 5 (Herbicidal ratio of 90% or more (almost completely withered))
[9]
  D (herbicidal effect grade): 5 (Herbicidal ratio of 90% or more (almost completely withered))
[10]; [24]
  M: herbicidal effect on Abutilon theophrasti: 5 (Herbicidal ratio of 90% or more (almost completely withered))
[11]; [24]
  K: herbicidal effect on Lolium multiflorum Lam.: 2 (Herbicidal ratio of 20% or more and less than 40%)
[12]; [24]
  P: herbicidal effect on Stellaria media: 5 (Herbicidal ratio of 90% or more (almost completely withered))
[13]; [24]
  O: herbicidal effect on Chenopodium album: 5 (Herbicidal ratio of 90% or more (almost completely withered))
[14]; [24]
  H: herbicidal effect on Echinochloa crus-galli var. crus-galli: 5 (Herbicidal ratio of 90% or more (almost completely withered))
[15]; [24]
  L: herbicidal effect on Apera spica-venti.: 4 (Herbicidal ratio of 70% or more and less than 90%)
[16]; [24]
  N: herbicidal effect on Amaranthus retroflexus: 5 (Herbicidal ratio of 90% or more (almost completely withered))
[17]; [24]
  F: herbicidal effect on Digitaria ciliaris: 5 (Herbicidal ratio of 90% or more (almost completely withered))
[18]; [24]
  Q: herbicidal effect on Galium spurium: 4 (Herbicidal ratio of 70% or more and less than 90%)
[19]; [24]
  G: herbicidal effect on Setaria viridis: 4 (Herbicidal ratio of 70% or more and less than 90%)
[20]; [24]
  R: herbicidal effect on Veronica persica: 5 (Herbicidal ratio of 90% or more (almost completely withered))
[21]; [24]
  I: herbicidal effect on Avena fatua: 3 (Herbicidal ratio of 40% or more and less than 70%)
[22]; [24]
  J: herbicidal effect on Alopecurus myosuroides: 3 (Herbicidal ratio of 40% or more and less than 70%)
[23]
  b (effect on crop grade): 2 (Herbicidal ratio of 20% or more and less than 40%)
